Results taken from US11351185B2, “Use of isovalerylspiramycins as anti-cancer agents to inhibit metastasis” (priority 2020, dated 2022).
“Also recorded” adds a separate entry of the source.

Key:
human cancer lines = conditions: MCF-7, MDA-MB-231, HepG2, A549, H460, H1299, 786-0, 769-P, U251, A172, U937, HeLa, PC3, PANC-1, TE-1, SGC-7901, HT-29, HL-60; cited from earlier work
LN229 and U251 cells = experiment: Annexin V apoptosis flow cytometry, glioblastoma cells; format: cell-based
Protocol: To assess the cytotoxicity of ISPs I, II and III, five glioblastoma cell lines, T98G, U118, A172, LN229 and U251, were treated with serial doses of each ISP, respectively, for 48 hours. Cell viability of these cell lines were evaluated by CCK8 assay, and the 50% inhibitory concentration (IC50) was calculated (FIG. 2A, B and FIG. 3). […] Cell distribution in each phase of the cell cycle was assessed in LN229 and U251 cells by flow cytometry, followed by EdU and DAPI staining.
(§1) Cells (2×10^5) were plated in 6-well plates and treated with different concentrations of ISP I. Then the cells were harvested and washed three times with PBS. Cells were resuspended in 100 μl binding buffer and were incubated with 5 μl APC-conjugated Annexin V working solution, a product of BD bioscience (Franklin Lakes, N.J. USA), and 1 μl propidium iodide (PI), a product of Invitrogen, for 15 min at room temperature with protection from light. Data acquisition and quantification were processed with BD LSRFortessa flow cytometer, using FlowJo software (Ashland, Oreg. USA).

[1] = system: mitochondrial ROS (superoxide); experiment: MitoSOX staining, flow cytometry; format: cell-based; conditions: 24 hours
Protocol: (§2) Since glutathione peroxidase catalyzes the reduction of reactive oxidative species (ROS), the inventors assessed whether treatment with ISP I increased the generation of ROS in glioblastoma cell lines (LN229 and U251) and RCC cell lines (786-O and RCC4).
To detect changes in mitochondrial superoxide after treatment with ISP I, the inventors used the MitoSOX Red mitochondrial superoxide indicator kit, a product of ThermoFisher Scientific. […] Cells were incubated with 5 μM MitoSOX Red for 15 min at room temperature, followed by flow cytometry analysis. Excitation by means of a 561 nm laser and a 610/20 discriminating filter was applied by a BD LSRFortessa flow cytometer.

intracellular ROS = experiment: ROS-Glo H2O2 assay; format: cell-based; conditions: 24 hours
Protocol: as §2
Cell ROS level change brought about by ISP I was measured by ROS-Glo H2O2 assay kit, a product of Promega (Madison, Wis. USA). After treatment with ISP I for 24 hours, H2O2 substrate was added and cells were incubated for 6 hours. After incubation the supernatant was collected and was incubated with ROS-Glo™ Detection Solution for 20 min at room temperature with protection from light. Luciferase data were obtained with the Synergy H1 microplate reader, a product of BioTek (Winooski, Vt. USA).

[2] = system: SELH-deficient 786-O and RCC4 cells; experiment: CCK8 assay in SELH-deficient (CRISPR/CAS9) RCC cells; format: cell-based; conditions: 786-O and RCC4 SELH knock out
Protocol: (§3) Cell viability was measured by Cell Counting Kit-8 (CCK-8, Dojindo Molecular Technologies, Tokyo, Japan). Cells were seeded in 96-well plates at a density of 3×10^3 cells/well and cultured for 24 hours before treatment with ISP I at different concentration. After treatment for a gradient ISP I concentration from 0 to 20 μg/ml for 48 hours, while control groups were only treated in PBS solution, 10 μl of CCK-8 solution were added to each well and cells were incubated for an additional 2 hours. The absorbance in each well at a wavelength of OD450 was detected by the Synergy H1 microplate reader, a product of BioTek (Winooski, Vt. USA).

786-O tumors = experiment: 786-O subcutaneous xenograft mouse model; format: in vivo, NSG mice; conditions: 35 mg/kg i.p. daily; 18 days after treatment
Protocol: For subcutaneous xenografts, NSG mice (6-8 weeks old) from the NCI-Frederick animal facility and Jackson Lab (Bar Harbor, Me. USA) were injected with 5×10^6 to 1×10^7 cells subcutaneously in the flank. One week later, the tumor-bearing mice were randomly assigned to different groups and made the tumor volume baseline equivalent and treated with normal saline or Zenomycin (35 mg/kg) everyday intraperitoneally. Tumors were measured using a caliper, and volume was calculated.

[3] = system: meningioma cell lines IOMM, JEN, CH-157; experiment: CCK8 cell viability assay, meningioma cell lines; format: cell-based; conditions: 48 hours
Protocol: as §3

786-O and RCC4 cells = experiment: Annexin V apoptosis flow cytometry, RCC cells; format: cell-based
Protocol: To confirm the cytotoxic effect observed in the glioblastoma cell lines, the inventors assessed ISP I's effect on renal cell carcinoma (RCC) cell lines (ACHN, UM-RC-2, RCC4 and 786-0). Cell viability was assessed similarly via CKK8 analysis. […] (FIG. 4C, D).
as §1

[4] = system: pre-rRNA (POL1 transcript); experiment: pre-rRNA transcription, real-time RT-PCR; format: cell-based; conditions: LN229 cells
Protocol: SELH is localized in the nucleolus, which is a sensor of oxidative stress. Yang et al., Nature communications 7: 13599 (2016); Novoselov et al., J. Biol. Chem. 282: 11960 (2007). […] JNK2 activation by oxidative stress inactivated RNA polymerase I (POL1) transcription factor TIF1A in the nucleoli to down-regulate rRNA synthesis. Mayer et al., Genes Dev. 19: 933 (2005). To investigate whether the ribosomal biogenesis was disrupted by ISP I, pre-rRNA transcription was evaluated using real-time RT-PCR analysis in LN229 cells. […] To examine the mechanisms by which ISP I disrupts POL1 transcription, the inventors initially evaluated JNK2 activity and the overall state of the transcription machinery in ISP I-treated LN229 cells.

Q: Which results are given for COC1C(O)CC(=O)OC(C)CC=CC=CC(OC2CCC(N(C)C)C(C)O2)C(C)CC(CC=O)C1OC1OC(C)C(OC2CC(C)(O)C(OC(=O)CC(C)C)C(C)O2)C(N(C)C)C1O (centres unmarked) [ISP I, 4″-isolvalerylspiramycin I]?
A: effect on proliferation in vitro of human cancer lines (human cancer lines): inhibitory effect; apoptosis (Annexin V stain) (LN229 and U251 cells): induced a dose-dependent apoptosis; mitochondrial ROS (MitoSOX) ([1]; LN229 and U251, 5 μg/mL or 10 μg/mL): increase of mitochondrial ROS accumulation; also recorded: higher intracellular ROS in a dose-dependent manner; mitochondrial ROS (MitoSOX) ([1]; RCC cells 786-O and RCC4, 5 μg/ml or 10 μg/ml): increase in mitochondrial ROS accumulation; also recorded: higher intracellular ROS in a dose-dependent manner; intracellular ROS level (ROS-Glo H2O2) (intracellular ROS; 786-O and RCC4, 10 μg/ml): increased intracellular ROS levels; intracellular ROS level (ROS-Glo H2O2) (intracellular ROS; LN229 and U251, 10 μg/mL): increased intracellular ROS levels; sensitivity of SELH-deficient cells vs wild type (CCK8) [2]: resistance to ISP I; also recorded: SELH-deficient cells were resistant to ISP I treatment; tumor size, weight and burden (786-O tumors): reduced 786-O tumor burden; also recorded: significantly reduced tumor size and weight; cytotoxic effect on meningioma cell lines [3]: demonstrated a cytotoxic effect; apoptosis (Annexin V stain) (786-O and RCC4 cells): induced a dose-dependent apoptosis; pre-rRNA transcription [4]: decreased pre-rRNA transcription in a dose-dependent manner; also recorded: reduced Pre-rRNA (PoL1 transcript) in a dose-dependent manner
